Experimental data reported in ChEMBL document CHEMBL5608141, “Identification of compartment-specific drug sensitivities in CRC organoid-stroma co-cultures” (2024).
Non-standard residues stand in square brackets, D forms with d. Residues, ends and D or L forms follow the SMILES beside them. Arg(Me) = CNC(=N)NCCC[C@H](N)C(=O)O; d3Pal = N[C@H](Cc1cccnc1)C(=O)O; azaGly = NNC(=O)O

Columns and labels:
Format in all cases: functional, Homo sapiens
Set-up in all cases: dose or concentration left out as unconfirmed
[1] = test system: Colon cancer organoid; assay: Identification of compartment-specific drug sensitivities in O06 CRC organoid-stroma F06 CAF co-cultures. Organoid is transduced with Lucferase2-P2A-EGFP lentivirus, fibroblast with Renilla-dsRed lentivirus. Dual-Glo Luciferase assay is used to report viability data.
[2] = test system: Colon cancer organoid; assay: Identification of compartment-specific drug sensitivities in O14 CRC organoid-stroma F14 CAF co-cultures. Organoid is transduced with Lucferase2-P2A-EGFP lentivirus, fibroblast with Renilla-dsRed lentivirus. Dual-Glo Luciferase assay is used to report viability data.
[3] = test system: Colon cancer organoid; assay: Identification of compartment-specific drug sensitivities in O20 CRC organoid-stroma F20 CAF co-cultures. Organoid is transduced with Lucferase2-P2A-EGFP lentivirus, fibroblast with Renilla-dsRed lentivirus. Dual-Glo Luciferase assay is used to report viability data.
[4] = Transduced with Lucferase2-P2A-EGFP lentivirus
[5] = Transduced with Renilla-dsRed lentivirus

Structure (SMILES) | Cell Viability [1, 4] | Cell Viability [1, 5] | Cell Viability [2, 4] | Cell Viability [2, 5] | Cell Viability [3, 4] | Cell Viability [3, 5]
C[C@]1(O)C[C@@H](c2nc(-c3ccc4ccc(-c5ccccc5)nc4c3)c3c(N)nccn32)C1 [LINSITINIB] | 53.0716% | 100.619% | 56.8923% | 65.041% | 60.6188% | 65.9185%
CNC(=N)NCCC[C@H](NC(=O)[C@H](CC(C)C)NC(=O)NNC(=O)[C@H](Cc1ccccc1)NC(=O)[C@H](CO)NC(=O)[C@H](CC(N)=O)NC(=O)[C@@H](Cc1cccnc1)NC(=O)[C@H](N)Cc1ccc(O)cc1)C(=O)NCC(N)=O [KISS1-543] (H-[dY][d3Pal]NSF[azaGly]L[Arg(Me)]G-NH2) | 93.1752% | 90.9674% | 105.115% | 104.622% | 101.104% | 120.489%
N#CC1(c2ccccn2)CCN(Cc2cc(C(=O)O)c(=O)n3ccccc23)CC1 [MSD-M1PAM] | 12.088% | 188.309% | 84.139% | 110.281% | 53.4383% | 117.537%
COc1cc(C(=O)N2CC[C@@H](O)[C@@H](N)C2)cc2nc(-c3cc4ccccc4n3CC3CC3)n(C)c12.Cl | 124.227% | 121.721% | 110.648% | 103.392% | 99.5485% | 114.018%
Cc1cnc(-c2cc(Cl)ccc2F)cc1-n1c(=O)n(CC(N)=O)c2ccccc21 [Al11] | 79.8154% | 66.9379% | 90.2433% | 100.795% | 100.628% | 109.542%
CCOC(=O)Nc1cc(-c2ccc(C)c(NS(C)(=O)=O)c2)nn2c(C)nnc12 | 112.605% | 266.102% | 91.5211% | 161.373% | 38.74% | 177.965%
Cc1ccc(-c2ccc3c(ccc4sc5c(c43)NC[C@@H](C)NC5=O)n2)cn1 | 100.355% | 85.371% | 77.4963% | 56.184% | 154.003% | 70.7863%
CCOc1ccc(S(=O)(=O)Nc2ccc(Cl)cc2C#Cc2cnc(C(=O)[O-])cc2OC)c2ncccc12.[K+] | 117.764% | 113.31% | 103.028% | 89.48% | 110.493% | 117.362%
CCCCN(CCCC)C(=O)CN1C[C@@H](c2cc(OC)c3c(c2)OCO3)[C@H](C(=O)O)[C@H]1CC(C)(C)CCC [A-545] | 84.2855% | 55.5874% | 148.86% | 126.562% | 123.099% | 97.2502%
CC(=O)Nc1cccc(-n2c(=O)n(C3CC3)c(=O)c3c(Nc4ccc(I)cc4F)n(C)c(=O)c(C)c32)c1 [TRAMETINIB] | 4.775% | 48.8246% | 7.5472% | 16.7625% | 2.051% | 46.1337%
O=C(NC[C@@H]1[C@H]2CN(C(=O)OCc3cc(C(F)(F)F)cc(C(F)(F)F)c3)C[C@@H]12)c1ccc2[nH]nnc2c1 [BI 2545] | 82.8507% | 98.3684% | 136.863% | 113.582% | 135.058% | 115.933%
COc1cc(Nc2nc(C)cc(-c3cnn4nc(OC)ccc34)n2)cc(C(F)(F)F)c1 | 17.5131% | 98.9895% | 120.94% | 74.993% | 136.021% | 99.6244%
CC(C)NC(=O)N1CC[C@H](NC2=Nc3cc(F)ccc3N(CC(F)F)c3ccc(Cl)cc32)C1 | 50.3719% | 97.5535% | 92.2307% | 99.3787% | 55.1322% | 142.836%
Cc1nccc(COC(=O)N2C[C@@H]3[C@@H](CNC(=O)c4ccc5[nH]nnc5c4)[C@@H]3C2)n1 [BI 3017] | 143.297% | 89.1244% | 148.595% | 113.357% | 107.028% | 99.2728%
CCCCNNC(=O)c1ccc(Br)cc1 | 113.204% | 110.004% | 96.2748% | 91.9269% | 131.97% | 114.511%
C[C@@H](c1cccc(CN)c1)n1cc(Cl)cc(C(N)=O)c1=N.Cl | 104.535% | 114.984% | 112.906% | 94.626% | 85.1763% | 93.567%
CCc1cccc(CC)c1NC(=O)c1nn(C)c2c1CCc1cnc(Nc3ccc(C(=O)NC4CCN(C)CC4)cc3OC(F)(F)F)nc1-2 | 8.756% | 150.393% | 11.9525% | 117.182% | 94.5822% | 107.437%
CC1=C(C#N)C(c2ccc3c(c2)c(NC(=O)c2ccccc2C)nn3C)C(C#N)=C(C)N1 [BAY-974] | 90.4588% | 87.5124% | 92.3005% | 117.089% | 105.235% | 128.576%
CC1=CC(C)=[N+]2C1=C(CCCCc1cn(CC(=O)N3CCc4nc(NC(=O)[C@H]5CCN(C#N)C5)sc4C3)nn1)c1c(C)cc(C)n1[B-]2(F)F | 125.029% | 111.523% | 84.8013% | 97.3387% | 77.3724% | 101.216%
Cc1c(C(=O)Nc2ccc(Oc3ccnc4[nH]cc(-c5ccccc5)c34)c(F)c2)c(=O)n(-c2ccc(F)cc2)n1C | 73.6786% | 56.2803% | 62.1416% | 28.9447% | 225.47% | 22.9382%
Cn1cc(C2=C(c3cn(C4CCN(Cc5ccccn5)CC4)c4ccccc34)C(=O)NC2=O)c2ccccc21 [ENZASTAURIN] | 65.6638% | 92.7001% | 80.1065% | 85.9175% | 54.6044% | 78.6109%
COc1cc2c(cc1NS(=O)(=O)c1ccc(Br)cc1C)n(C)c(=O)n2C | 53.0589% | 146.987% | 88.9015% | 103.244% | 86.7229% | 193.757%
COc1cc2ncn(-c3cc(OCc4ccccc4C(F)(F)F)c(C(N)=O)s3)c2cc1OC [GW843682X] | 4.781% | 182.458% | 3.29% | 110.017% | 89.1479% | 152.214%
O=C(CNCc1cc2ccccc2[nH]1)N[C@H]1CC[C@@H](c2nc3ccccc3[nH]2)CC1 | 85.8975% | 91.436% | 106.264% | 107.393% | 100.403% | 124.153%
